Source: article PMC5896380, “Selective imaging of cathepsin L in breast cancer by fluorescent activity-based probes” (Chemical Science, 2018)
Non-standard residues stand in square brackets, D forms with d. *: point of attachment. Phe(3,4-Cl2) = N[C@@H](Cc1ccc(Cl)c(Cl)c1)C(=O)O; Phe(F5) = N[C@@H](Cc1c(F)c(F)c(F)c(F)c1F)C(=O)O; Phe(3,4-F2) = N[C@@H](Cc1ccc(F)c(F)c1)C(=O)O; Phe(2-Cl) = N[C@@H](Cc1ccccc1Cl)C(=O)O; Phe(4-F) = N[C@@H](Cc1ccc(F)cc1)C(=O)O; Phe(2-F) = N[C@@H](Cc1ccccc1F)C(=O)O; ACC = NC(=O)Cc1cc(=O)oc2cc(N*)ccc12; Met(O) = CS(=O)CC[C@H](N)C(=O)O; Tic = O=C(O)[C@@H]1Cc2ccccc2CN1; dOrn = NCCC[C@@H](N)C(=O)O; Orn = NCCC[C@H](N)C(=O)O; Dab = NCC[C@H](N)C(=O)O

Legend:
Type in all cases: biochemical
[1] = molecular target: T1, cathepsin V (Homo sapiens, UniProt O60911); assay: Substrate selectivity screening, rate of hydrolysis, cathepsin V; conditions: Table S4; substrate 100µM, cathepsin 5nM; pH 5.5, 37 °C; average of at least three screenings
T1 construct: made in house
Protocol: (§1) All kinetic experiments were performed using fMax (Molecular Devices) and CLARIOStar (BMG LABTECH) spectrofluorimeters operating in kinetic mode using 96-well plates. ACC-labeled substrates were screened using 355 nm and 460 nm wavelengths (excitation and emission, respectively). […] The buffer was prepared at room temperature and the enzyme kinetic studies were performed at 37 °C.
(§2) All potentially selective cathepsin L substrates were tested for their selectivity against a panel of five different cathepsins, containing cathepsins L, V, S, K and […], at concentrations of 2 μM and 100 μM. To obtain reliable results the concentration of each cathepsin was 5 nM. Substrate hydrolysis was carried out for 10 min (for cathepsin L) and for up to 60 min (for other cathepsins). Hydrolysis rates (RFU s^–1) are presented as average values from at least three screenings.

[2] = molecular target: T2, cathepsin B (Homo sapiens, UniProt P07858); assay: Substrate selectivity screening, rate of hydrolysis, cathepsin B; conditions: Table S4; substrate 100µM, cathepsin 5nM; pH 5.5, 37 °C; average of at least three screenings
T2 construct: made in house
Protocol: as §1, §2

[3] = molecular target: T3, cathepsin K (Homo sapiens, UniProt P43235); assay: Substrate selectivity screening, rate of hydrolysis, cathepsin K; conditions: Table S4; substrate 100µM, cathepsin 5nM; pH 5.5, 37 °C; average of at least three screenings
T3 construct: made in house
T3 sequence (P43235 115-329): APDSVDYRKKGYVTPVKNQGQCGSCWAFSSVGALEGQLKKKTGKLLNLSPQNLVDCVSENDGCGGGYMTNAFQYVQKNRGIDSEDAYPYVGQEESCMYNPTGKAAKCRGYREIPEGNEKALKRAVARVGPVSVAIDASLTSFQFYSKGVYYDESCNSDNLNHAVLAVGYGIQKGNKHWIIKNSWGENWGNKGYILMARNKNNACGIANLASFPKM
Protocol: as §1, §2

[4] = molecular target: T4, cathepsin L (Homo sapiens, UniProt P07711); assay: Substrate selectivity screening, rate of hydrolysis, cathepsin L; conditions: Table S4; substrate 100µM, cathepsin 5nM; pH 5.5, 37 °C; average of at least three screenings
T4 construct: made in house
Protocol: as §1, §2

[5] = molecular target: T5, cathepsin S (Homo sapiens, UniProt P25774); assay: Substrate selectivity screening, rate of hydrolysis, cathepsin S; conditions: Table S4; substrate 100µM, cathepsin 5nM; pH 5.5, 37 °C; average of at least three screenings
T5 construct: made in house
Protocol: as §1, §2

[6] = molecular target: T4, cathepsin L; assay: Kinetic parameters of ACC substrates with cathepsin L; conditions: pH 5.5, 37 °C, cathepsin L 0.1–0.5 nM, SD below 15%
Protocol: as §1
(§3) Classic substrate velocity plots were analyzed according to Michaelis–Menten kinetics and a detailed protocol for the determination of kinetic parameters for ACC-tagged substrates is found elsewhere.[56] […] Experiments were repeated at least three times and results are presented as an average. The SDs were below 15%.

[7] = molecular target: T1, cathepsin V; assay: Kinetic parameters of ACC substrates with cathepsin V; conditions: Fig. 5B; pH 5.5, 37 °C; cathepsin V 10–20 nM; triplicate, SD below 15%
Protocol: as §1, §3

[8] = molecular target: T3, cathepsin K; assay: Kinetic parameters of ACC substrates with cathepsin K; conditions: Fig. 5B; pH 5.5, 37 °C; cathepsin K 5–20 nM; triplicate, SD below 15%
Protocol: as §1, §3

[9] = molecular target: T2, cathepsin B; assay: Kinetic parameters of ACC substrates with cathepsin B; conditions: Fig. 5B; pH 5.5, 37 °C; cathepsin B 4–15 nM; triplicate, SD below 15%
Protocol: as §1, §3

[10] = molecular target: T5, cathepsin S; assay: Kinetic parameters of ACC substrates with cathepsin S; conditions: Fig. 5B; pH 5.5, 37 °C; cathepsin S 5–20 nM; triplicate, SD below 15%
Protocol: as §1, §3

T4 sequence (P07711 114-333): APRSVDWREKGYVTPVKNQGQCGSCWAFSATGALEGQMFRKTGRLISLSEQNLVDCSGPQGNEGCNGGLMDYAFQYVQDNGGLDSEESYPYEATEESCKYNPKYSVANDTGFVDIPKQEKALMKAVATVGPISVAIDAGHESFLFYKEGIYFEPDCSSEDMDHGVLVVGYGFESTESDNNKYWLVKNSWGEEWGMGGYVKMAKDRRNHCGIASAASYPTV
T1 sequence (O60911 114-334): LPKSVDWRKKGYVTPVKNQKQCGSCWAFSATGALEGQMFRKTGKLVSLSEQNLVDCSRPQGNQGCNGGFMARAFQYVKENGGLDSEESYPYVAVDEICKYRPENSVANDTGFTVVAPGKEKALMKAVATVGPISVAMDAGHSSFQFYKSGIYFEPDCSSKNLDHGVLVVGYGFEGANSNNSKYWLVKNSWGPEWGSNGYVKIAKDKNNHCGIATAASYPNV
T5 sequence (P25774 115-331): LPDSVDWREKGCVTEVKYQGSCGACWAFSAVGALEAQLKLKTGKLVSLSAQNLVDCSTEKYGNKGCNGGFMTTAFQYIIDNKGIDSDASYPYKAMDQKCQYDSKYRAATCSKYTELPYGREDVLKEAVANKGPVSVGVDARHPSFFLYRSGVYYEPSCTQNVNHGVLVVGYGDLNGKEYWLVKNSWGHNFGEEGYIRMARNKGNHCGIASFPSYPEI

Row | Substance | Relative substrate activity (rate of hydrolysis), cathepsin V [1] [RFU/s] | Relative substrate activity (rate of hydrolysis), cathepsin B [2] [RFU/s] | Relative substrate activity (rate of hydrolysis), cathepsin K [3] [RFU/s] | Relative substrate activity (rate of hydrolysis), cathepsin L [4] [RFU/s] | Relative substrate activity (rate of hydrolysis), cathepsin S [5] [RFU/s] | kcat/KM ([6]; Fig. 4B, ACC substrates, 100 mM sodium acetate, 100 mM NaCl, 10 mM DTT, 1 mM EDTA, average of at least three) | kcat/KM Cath-V [7] [M⁻¹ s⁻¹] | kcat/KM Cath-K [8] [M⁻¹ s⁻¹] | kcat/KM Cath-L ([6]; Fig. 5B, triplicate) | kcat/KM Cath-B [9] [M⁻¹ s⁻¹] | kcat/KM Cath-S [10] [M⁻¹ s⁻¹]
1 | Ac-A[Orn][Phe(3,4-Cl2)]R-{ACC} (SMILES CC(=O)N[C@@H](C)C(=O)N[C@@H](CCCN)C(=O)N[C@@H](Cc1ccc(Cl)c(Cl)c1)C(=O)N[C@@H](CCCNC(=N)N)C(=O)Nc1ccc2c(CC(N)=O)cc(=O)oc2c1) | 346 | 189 | 4.6 | 844 | 3.4 |  |  |  |  |  | 
2 | Ac-A[dK]K(Ac)R-{ACC} (SMILES CC(=O)NCCCC[C@H](NC(=O)[C@@H](CCCCN)NC(=O)[C@H](C)NC(C)=O)C(=O)N[C@@H](CCCNC(=N)N)C(=O)Nc1ccc2c(CC(N)=O)cc(=O)oc2c1) | 0.0 | 16.9 | 1.2 | 25.3 | 0.0 |  |  |  |  |  | 
3 | Ac-HRFR-{ACC} (SMILES CC(=O)N[C@@H](Cc1c[nH]cn1)C(=O)N[C@@H](CCCNC(=N)N)C(=O)N[C@@H](Cc1ccccc1)C(=O)N[C@@H](CCCNC(=N)N)C(=O)Nc1ccc2c(CC(N)=O)cc(=O)oc2c1) [reference compound] | 224 | 272 | 24.5 | 875 | 40.3 | 13,050,000 M^-1s^-1 |  |  |  |  | 
4 | Ac-H[dL][Phe(3,4-Cl2)]R-{ACC} (SMILES CC(=O)N[C@@H](Cc1c[nH]cn1)C(=O)N[C@H](CC(C)C)C(=O)N[C@@H](Cc1ccc(Cl)c(Cl)c1)C(=O)N[C@@H](CCCNC(=N)N)C(=O)Nc1ccc2c(CC(N)=O)cc(=O)oc2c1) | 306 | 65.1 | 1.5 | 901 | 4.4 |  |  |  |  |  | 
5 | Ac-H[dL][Phe(F5)][Orn]-{ACC} (SMILES CC(=O)N[C@@H](Cc1c[nH]cn1)C(=O)N[C@H](CC(C)C)C(=O)N[C@@H](Cc1c(F)c(F)c(F)c(F)c1F)C(=O)N[C@@H](CCCN)C(=O)Nc1ccc2c(CC(N)=O)cc(=O)oc2c1) | 0.0 | 0.0 | 0.3 | 153 | 0.0 |  |  |  |  |  | 
6 | Ac-H[dR][Phe(3,4-F2)]L-{ACC} (SMILES CC(=O)N[C@@H](Cc1c[nH]cn1)C(=O)N[C@H](CCCNC(=N)N)C(=O)N[C@@H](Cc1ccc(F)c(F)c1)C(=O)N[C@@H](CC(C)C)C(=O)Nc1ccc2c(CC(N)=O)cc(=O)oc2c1) | 30.5 | 22.3 | 0.0 | 474 | 12.7 |  |  |  |  |  | 
7 | Ac-H[dV][Phe(F5)]R-{ACC} (SMILES CC(=O)N[C@@H](Cc1c[nH]cn1)C(=O)N[C@@H](C(=O)N[C@@H](Cc1c(F)c(F)c(F)c(F)c1F)C(=O)N[C@@H](CCCNC(=N)N)C(=O)Nc1ccc2c(CC(N)=O)cc(=O)oc2c1)C(C)C) | 4.4 | 0.7 | 1.1 | 706 | 0.0 |  | 539 | < 10 | 747,400 M^-1s^-1 | 252 | < 10
8 | Ac-Pip-DLeu-Phe(3,4-F2)-Arg-ACC | 103 | 9.4 | 1.2 | 699 | 7.8 |  |  |  |  |  | 
9 | Ac-[Met(O)][dR][Phe(2-F)]R-{ACC} (SMILES CC(=O)N[C@@H](CCS(C)=O)C(=O)N[C@H](CCCNC(=N)N)C(=O)N[C@@H](Cc1ccccc1F)C(=O)N[C@@H](CCCNC(=N)N)C(=O)Nc1ccc2c(CC(N)=O)cc(=O)oc2c1) | 129 | 76.2 | 0.2 | 658 | 21.1 |  |  |  |  |  | 
10 | Ac-[Tic][Dab][Phe(3,4-F2)]R-{ACC} (SMILES CC(=O)N1Cc2ccccc2C[C@H]1C(=O)N[C@@H](CCN)C(=O)N[C@@H](Cc1ccc(F)c(F)c1)C(=O)N[C@@H](CCCNC(=N)N)C(=O)Nc1ccc2c(CC(N)=O)cc(=O)oc2c1) | 28.4 | 41.2 | 0.2 | 825 | 2.8 |  |  |  |  |  | 
11 | Ac-[Tic][Orn][Phe(4-F)]L-{ACC} (SMILES CC(=O)N1Cc2ccccc2C[C@H]1C(=O)N[C@@H](CCCN)C(=O)N[C@@H](Cc1ccc(F)cc1)C(=O)N[C@@H](CC(C)C)C(=O)Nc1ccc2c(CC(N)=O)cc(=O)oc2c1) | 31.7 | 15.0 | 0.0 | 684 | 4.7 |  |  |  |  |  | 
12 | Ac-[Tic][dOrn][Phe(2-Cl)]K-{ACC} (SMILES CC(=O)N1Cc2ccccc2C[C@H]1C(=O)N[C@H](CCCN)C(=O)N[C@@H](Cc1ccccc1Cl)C(=O)N[C@@H](CCCCN)C(=O)Nc1ccc2c(CC(N)=O)cc(=O)oc2c1) [Tic-DArg-Phe(2-Cl)-Lys] | 36.1 | 3.1 | 0.0 | 134 | 10.3 |  |  |  |  |  | 
